Laboratory results: patent US6544987B2, “Compounds, compositions, and methods for stimulating neuronal growth and elongation” (Pfizer Inc., priority 1999, dated 2003)
pKi: −log10 of the molar value. Where “and” joins values, the source holds several entries; their conditions need not be identical. Equal entries are not always repeated.

Target: FKBP12 (Homo sapiens, UniProt P62942)
Experiment: Affinity for FKBP-12 (Ki), succinyl-Ala-Leu-Pro-Phe-pNA chymotrypsin-coupled assay
Assay type: biochemical
Settings: Table 2; read-out: FKBP12 Kiapps
Description: In a quartz cuvette, a final 1 mL buffer concentration was reached (50 mM Hepes, 100 mM NaCl, pH 8.0). Within this final reaction volume, 3.5 μL […] FKBP-12 (in 50 mM Hepes, 100 mM NaCl, pH 8.0) and 10 μL test compound in DMSO were added. The reaction was initiated by adding 10 μL chymotrypsin (100 mg/mL in 1 mM HCl) followed by 5 μL (1-20 mM succinyl-Ala-Leu-Pro-Phe-pNA in 240 mM LiCl/TFE).
The absorbance at 390 nm versus time was monitored for up to 400 seconds. Rate constants were determined from the absorbance versus time plots generated.

Chain of FKBP12 (P62942 whole entry, species assumed): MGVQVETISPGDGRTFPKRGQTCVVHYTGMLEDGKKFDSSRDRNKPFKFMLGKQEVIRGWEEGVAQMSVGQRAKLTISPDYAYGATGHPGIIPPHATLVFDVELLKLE

Row | pKi | Compound
1 | 5.19 | O=C(OCCCCc1ccccc1)[C@@H]1CCCCN1S(=O)(=O)Oc1ccccc1 [Compound 13, 1-Phenoxy sulfonyl-piperidine-2S-carboxylic acid 4-phenyl-butyl ester]
2 | 4.56 | O=C(OCc1ccccc1)[C@@H]1CCCN1S(=O)(=O)Oc1ccccc1 [Compound 15, 1-Phenoxy sulfonyl-pyrrolidine-2S-carboxylic acid benzyl ester]
3 | 5.55 | CCC(C)(C)NS(=O)(=O)N1CCC[C@H]1C(=O)OCc1ccccc1 [Compound 27, 1-(1,1-Dimethyl-propylsulfamoyl)-pyrrolidine-2S-carboxylic acid Benzyl ester]
4 | 4.71 | O=C(OCc1ccccc1)[C@@H]1CCCN1S(=O)(=O)Nc1ccccc1 [Compound 28, 1-Phenylsulfamoyl-pyrrolidine-2S-carboxylic acid Benzyl ester]
5 | 4.46 | COc1cc(NS(=O)(=O)N2CCC[C@H]2C(=O)OCc2ccccc2)cc(OC)c1OC [Compound 29, 1-(3,4,5-Trimethoxy-phenylsulfamoyl)-pyrrolidine-2S-carboxylic acid Benzyl ester]
6 | 6.40 | COc1cc(NS(=O)(=O)N2CCCC[C@H]2C(=O)OCc2ccccc2)cc(OC)c1OC [Compound 36, 1-(3,4,5-Trimethoxy-phenylsulfamoyl)-piperidine-2S-carboxylic acid Benzyl ester]
7 | 3.91 | NS(=O)(=O)N1CCCC[C@H]1C(=O)OCc1ccccc1 [Compound 37, 1-sulfamoyl-piperidine-2S-carboxylic acid Benzyl ester]
8 | 6.17 | CCC(C)(C)NS(=O)(=O)N1CCCC[C@H]1C(=O)OCc1ccccc1 [Compound 38, 1-(1,1-Dimethyl-propylsulfamoyl)-piperidine-2S-carboxylic acid Benzyl ester]
9 | < 4.00 | COc1cc(NS(=O)(=O)N2CCCC[C@H]2C(=O)O)cc(OC)c1OC [Compound 39, 1-(3,4,5-Trimethoxy-phenylsulfamoyl)-piperidine-2S-carboxylic acid]
10 | 3.64 | COc1cc(N2C(=O)[C@@H]3CCCCN3S2(=O)=O)cc(OC)c1OC [Compound 40, 1,1-Dioxo-2-(3,4,5-trimethoxy-phenyl)-hexahydro-1-[1,2,5] Thiadiazolo [2,3-] pyridin-3-one]
11 | 4.42 | NS(=O)(=O)N1CCCC[C@H]1C(=O)OCCCCc1ccccc1 [Compound 41, 1-Sulfamoyl-piperidine-2S-carboxylic acid 4-phenyl-butyl ester]
12 | 6.58 | O=C(OCCCCc1ccccc1)[C@@H]1CCCCN1S(=O)(=O)Nc1ccc(N2CCOCC2)cc1 [Compound 42, (S)-1-(4-morpholin-4-yl-phenylsulfamoyl)-piperidine-2-carboxylic 4-phenyl-butyl ester]
13 | 4.72 | COc1ccc(N(C)S(=O)(=O)N2CCCC[C@H]2C(=O)OCCCCc2ccccc2)cc1 [Compound 43, 1-[(4-methoxy-phenyl)-methyl-sulfamoyl]-piperidine-2S-carboxylic acid 4-phenyl-butyl ester]
14 | 4.92 | CN(c1ccccc1)S(=O)(=O)N1CCCC[C@H]1C(=O)OCCCCc1ccccc1 [Compound 44, 1-(Methyl-phenyl-sulfamoyl)-piperidine-2S-carboxylic acid 4-phenyl-butyl ester]
15 | 7.08 | O=C(OCCCCc1ccccc1)[C@@H]1CCCCN1S(=O)(=O)Nc1ccc2[nH]c(=O)[nH]c2c1 [Compound 45, 1-(2-Oxo-2,3-dihydro-1H-benzoimidazol-5-ylsulfamoyl)-piperidine-2-carboxylic acid 4-phenyl-butyl ester]
16 | 4.43 | COc1ccc2nc(NS(=O)(=O)N3CCCC[C@H]3C(=O)OCCCCc3ccccc3)sc2c1 [Compound 46, 1-(6-Methoxy-benzothiazol-2-ylsulfamoyl)-piperidine-2S-carboxylic acid 4-phenyl-butyl ester]
17 | 5.80 | O=C(OCCCCc1ccccc1)[C@@H]1CCCCN1S(=O)(=O)Nn1cccc1 [Compound 47, 1-(Pyrrol-1-ylsulfamoyl)-piperidine-2S-carboxylic acid 4-phenylbutyl ester]
18 | 6.46 | COc1cc(NS(=O)(=O)N2CCCC[C@H]2C(=O)OCCCCc2ccccc2)cc(OC)c1 [Compound 48, 1-(3,5-Dimethoxy-phenylsulfamoyl)-piperidine-2S-carboxylic acid 4-phenyl-butyl ester]
19 | 7.10 | COc1ccc(NS(=O)(=O)N2CCCC[C@H]2C(=O)OCCCCc2ccccc2)cn1 [Compound 49, 1-(6-methoxy-pyridin-3-ylsulfamoyl)-piperidine-2S-carboxylic acid 4-phenyl-butyl ester]

Row | pKi | Compound
20 | 6.03 | NC(=O)C1CCCN(S(=O)(=O)N2CCCC[C@H]2C(=O)OCCCCc2ccccc2)C1 (stereo partly drawn) [Compound 51, 1-(3-Carbamoyl-piperidine-1-sulfonyl)-piperidine-2S-carboxylic acid 4-phenyl-butyl ester]
21 | 6.82 | O=C(OCCCCc1ccccc1)[C@@H]1CCCCN1S(=O)(=O)Nc1ccc(Cl)nc1 [Compound 52, (S)-1-(6-Chloro-pyridin-3-ylsulfamoyl)-piperidine-2-carboxylic acid 4-phenyl-butyl ester]
22 | 5.54 | COC(OC)c1ccn(S(=O)(=O)N2CCCC[C@H]2C(=O)OCCCCc2ccccc2)n1 [Compound 53, 1-(3-Dimethoxymethyl-pyrazole-1-sulfonyl)-peperidine-2-carboxyic acid 4-phenyl-butyl ester]
23 | 4.59 | COc1ccc(N(C)S(=O)(=O)N2CCCC[C@H]2C(=O)OCCCCc2ccccc2)cc1[N+](=O)[O-] [Compound 54, (S)-1-[(4-Methoxy-3-nitro-phenyl)-methyl-sulfamoyl]-piperidine-2-carboxylic acid 4-phenyl-butyl ester]
24 | 4.88 | COc1ccc(N(C)S(=O)(=O)N2CCCC[C@H]2C(=O)OCCCCc2ccccc2)cc1N [Compound 55, (S)-1-[(3-Amino-4-methoxy-phenyl)-methyl-sulfamoyl]-piperidine-2-carboxylic acid 4-phenyl-butyl ester]
25 | 6.32 | O=C(OCCCCc1ccccc1)[C@@H]1CCCCN1S(=O)(=O)Nc1ccc2nc[nH]c2c1 [Compound 56, (S)-1-(3H-Benzoimidazol-5-ylsulfamoyl)-piperidine-2-carboxylic acid 4-phenyl-butyl ester]
26 | 6.83 | COc1cc(NS(=O)(=O)N2CCCC[C@H]2C(=O)NCCCCc2ccccc2)cc(OC)c1OC [Compound 59, (S)-1-(3,4,5-Trimethoxy-phenylsulfamoyl)-piperidine-2-carboxylic acid (4-phenyl-butyl)-amide]
27 | 3.48 and 3.57 | NS(=O)(=O)N1CCSCC1C(=O)OCCCCc1ccccc1 (centres unmarked) [Compound 67, 4-sulfamoyl-thiomorpholine-3-carboxylic acid 4-phenyl-butyl ester]
28 | 5.36 and 5.19 | COc1cc(NS(=O)(=O)N2CCSCC2C(=O)OCCCCc2ccccc2)cc(OC)c1OC (centres unmarked) [Compound 68, 4-(3,4,5-trimethoxy-phenylsulfamoyl)-thiomorpholine-3-carboxylic acid 4-phenyl-butyl ester]
29 | 5.28 | O=C(OCCCCc1ccccc1)C1CSCCN1S(=O)(=O)Nc1ccccc1 (centres unmarked) [Compound 69, 4-Phenylsulfamoyl-thiomorpholine-3-carboxylic acid 4-phenyl-butyl ester]
30 | 6.02 | O=C(OCCCCc1ccccc1)C1CSCCN1S(=O)(=O)Nc1ccc2[nH]c(=O)[nH]c2c1 (centres unmarked) [Compound 70, 4-(2-Oxo-2,3-dihydro-1H-benzoimidazol-5-ylsulfamoyl)-thiomorpholine-3-carboxylic acid 4-phenyl-butyl ester]
31 | 3.97 | CN(C)S(=O)(=O)N1CCCC[C@H]1c1nnc(Cc2ccccc2)o1 [Compound 75, 2S-(5-Benzyl-[1,3,4]oxadiazol-2-yl)-piperidine-1-sulfonic acid dimethylamide]
32 | 5.89 | O=S(=O)(Nc1ccccc1)N1CCCC[C@H]1c1nnc(Cc2ccccc2)o1 [Compound 76, 2S-(5-Benzyl-[1,3,4]oxadiazol-2-yl)-piperidine-1-sulfonic acid phenylamide]
33 | 4.17 | COc1ccc(N(C)S(=O)(=O)N2CCCC[C@H]2c2nnc(Cc3ccccc3)o2)cc1 [Compound 77, 2-(5-Benzyl-[1,3,4]oxadiazol-2-yl)-piperidine-1-sulfonic acid (4-methoxy-phenyl)-methyl-amide]
34 | 5.28 | COc1cc(NS(=O)(=O)N2CCCC[C@H]2c2nnc(Cc3ccccc3)o2)cc(OC)c1OC [Compound 78, 2-(5-Benzyl-[1,3,4]oxadiazol-2-yl)-piperidine-1-sulfonic acid (3,4,5-trimethoxy-phenyl)-amide]
35 | 5.80 | COc1cc(NS(=O)(=O)N2[C@H]3CC[C@H](C3)[C@H]2C(=O)OCCCCc2ccccc2)cc(OC)c1OC [Compound 85, 2-(3,4,5-Trimethoxy-phenylsulfamoyl)-2-aza-bicyclo[2.2.1]heptane-endo-3-carboxylic acid 4-phenyl-butyl ester]
36 | 5.75 and 5.93 | O=C(OCc1ccccc1)[C@@H]1CCCCN1S(=O)(=O)Nc1ccc(N2CCOCC2)nc1 [Compound 86, (S)-1-(6-Morpholin-4-yl-pyridin-3-ylsulfamoyl)-piperidine-2-carboxylic acid Benzyl ester]
37 | 6.12 | COc1ccc(NS(=O)(=O)N2CCCC[C@H]2C(=O)OCc2ccccc2)cn1 [Compound 87, 1-(6-Methoxy-pyridin-3-ylsulfamoyl)-piperidine-2S-carboxylic acid Benzyl ester]
38 | 6.08 | C[C@@H]1CN(S(=O)(=O)N2CCCC[C@H]2C(=O)OCc2ccccc2)C[C@H](C)O1 [Compound 88, (S)-1-(cis-2,6-Dimethyl-morpholine-4-sulfonyl)-piperidine-2-carboxylic acid benzyl ester]
